Read-outs that look alike come from different tables or passages of the source.
Key:
Assay type in all cases: in vivo
[1] = system: blackgrass (Alopecurus myosuroides); assay: Test A postemergence; conditions: Alopecurus myosuroides, post-emergence, 240 h; for pest or weed control at 125 g/ha: 125 g ai/ha
Outline: (§1)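 Ratings of 0 (no effect) to 100 (complete control) come from visual comparison with untreated controls roughly 10 d after treatment. Test chemicals, formulated in a non-phytotoxic solvent mixture with surfactant, were applied either as a preemergence directed soil spray on seeded soil or postemergence to one- to two-leaf plants 2 to 10 cm tall.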

[2] = system: ragweed (common ragweed, Ambrosia elatior); assay: Test A postemergence; conditions: Ambrosia artemisiifolia, post-emergence, 240 h; for pest or weed control at 125 g/ha: 125 g ai/ha
Outline: as §1

[3] = system: barnyardgrass (Echinochloa crus-galli); assay: Test A postemergence; conditions: Echinochloa crus-galli, post-emergence, 240 h; for pest or weed control at 125 g/ha: 125 g ai/ha
Outline: as §1

[4] = system: Kochia (Kochia scoparia); assay: Test A postemergence; conditions: Bassia scoparia, post-emergence, 240 h; for pest or weed control at 125 g/ha: 125 g ai/ha
Outline: as §1

[5] = system: Galium (catchweed bedstraw, Galium aparine); assay: Test A postemergence; conditions: Galium, post-emergence, 240 h; for pest or weed control at 125 g/ha: 125 g ai/ha
Outline: as §1

[6] = system: wheat (Triticum aestivum); assay: Test A postemergence; conditions: Triticum aestivum, post-emergence, 240 h; for plant injury at 125 g/ha: 125 g ai/ha
Outline: as §1

[7] = system: pigweed (Amaranthus retroflexus); assay: Test A postemergence; conditions: Amaranthus retroflexus, post-emergence, 240 h; for pest or weed control at 125 g/ha: 125 g ai/ha
Outline: as §1

[8] = system: corn (Zea mays); assay: Test A postemergence; conditions: Zea mays, post-emergence, 240 h; for Corn plant response rating (crop injury, 0 = no effect, 100 = complete kill) at 125 g/ha: Postemergence, visual injury after approximately 10 d, 0 to 100 scale where 0 is no effect and 100 is complete control
Outline: as §1

[9] = system: ryegrass, Italian (Italian ryegrass, Lolium multiflorum); assay: Test A postemergence; conditions: Lolium multiflorum, post-emergence, 240 h; for pest or weed control at 125 g/ha: 125 g ai/ha
Outline: as §1

[10] = system: giant foxtail (Setaria faberii); assay: Test A postemergence; conditions: Setaria faberi, post-emergence, 240 h; for pest or weed control at 125 g/ha: 125 g ai/ha
Outline: as §1

[11] = system: ducksalad (Heteranthera limosa); assay: Test B flooded paddy test; conditions: Heteranthera limosa, 250 g ai/ha, Flood, read-out: Ducksalad plant response rating
Outline: (§2)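 Compound goes directly into floodwater once pots are flooded 3 cm above soil, targeting plants at two leaves; the water depth is then held for the test duration. Plants sit 13–15 d in a greenhouse and are rated visually, 100 denoting complete control.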

[12] = system: barnyardgrass (Echinochloa crus-galli); assay: Test B flooded paddy test; conditions: Echinochloa crus-galli, 250 g ai/ha, Flood, read-out: Barnyardgrass plant response rating
Outline: as §2

[13] = system: rice (Oryra sativa); assay: Test B flooded paddy test; conditions: Oryza sativa, 250 g ai/ha, Flood, read-out: Rice plant response rating
Outline: as §2

[14] = system: sedge, umbrella (small-flower umbrella sedge, Cyperus difformis); assay: Test B flooded paddy test; conditions: Cyperus difformis, 250 g ai/ha, Flood, read-out: Sedge, Umbrella plant response rating
Outline: as §2

[15] = system: barnyardgrass (Echinochloa crus-galli); assay: Test A preemergence; conditions: Echinochloa crus-galli, pre-emergence, 240 h; for pest or weed control at 125 g/ha: 125 g ai/ha; for pest or weed control at 500 g/ha: 500 g ai/ha
Outline: as §1

[16] = Postemergence, visual injury after approximately 10 d, 0 to 100 scale where 0 is no effect and 100 is complete control, read-out: Plant response rating, Blackgrass
[17] = Postemergence, visual injury after approximately 10 d, 0 to 100 scale where 0 is no effect and 100 is complete control, read-out: Plant response rating, Ragweed
[18] = Postemergence, visual injury after approximately 10 d, 0 to 100 scale where 0 is no effect and 100 is complete control, read-out: Plant response rating, Barnyardgrass
[19] = Postemergence, visual injury after approximately 10 d, 0 to 100 scale where 0 is no effect and 100 is complete control, read-out: Plant response rating, Kochia
[20] = Postemergence, visual injury after approximately 10 d, 0 to 100 scale where 0 is no effect and 100 is complete control, read-out: Plant response rating, Galium
[21] = Postemergence, visual injury after approximately 10 d, 0 to 100 scale where 0 is no effect and 100 is complete control, read-out: Plant response rating, Wheat
[22] = Postemergence, visual injury after approximately 10 d, 0 to 100 scale where 0 is no effect and 100 is complete control, read-out: Plant response rating, Pigweed
[23] = Postemergence, visual injury after approximately 10 d, 0 to 100 scale where 0 is no effect and 100 is complete control, read-out: Plant response rating, Ryegrass, Italian
[24] = Postemergence, visual injury after approximately 10 d, 0 to 100 scale where 0 is no effect and 100 is complete control, read-out: Plant response rating, Foxtail, Giant
[25] = 0 to 100 scale where 0 is no effect and 100 is complete control
[26] = preemergence, visual injury rating about 10 d after treatment, 0 to 100 scale (0 no effect, 100 complete control), read-out: Barnyardgrass plant response rating
[27] = scale of 0 to 100 where 0 is no effect and 100 is complete control
[28] = preemergence, 0 to 100 scale where 0 is no effect and 100 is complete control, read-out: Barnyardgrass plant response rating

## Cc1ccc([C@H]2CN(C)C(=O)[C@@H]2C(=O)Nc2cccc(F)c2C)cc1Cl [Compound 1014]
[1]; [16]
  pest or weed control at 125 g/ha: 0%
[1]; 500 g ai/ha, postemergence, visual injury, 0 to 100 scale (0 no effect, 100 complete control), approx. 10 d, read-out: Plant response rating, Blackgrass
  pest or weed control at 500 g/ha: 50%
[2]; [17]
  pest or weed control at 125 g/ha: 0%
[2]; 500 g ai/ha, postemergence, visual injury, 0 to 100 scale (0 no effect, 100 complete control), approx. 10 d, read-out: Plant response rating, Ragweed
  pest or weed control at 500 g/ha: 30%
[3]; [18]
  pest or weed control at 125 g/ha: 90%
[3]; 500 g ai/ha, postemergence, visual injury, 0 to 100 scale (0 no effect, 100 complete control), approx. 10 d, read-out: Plant response rating, Barnyardgrass
  pest or weed control at 500 g/ha: 90%
[4]; [19]
  pest or weed control at 125 g/ha: 30%
[4]; 500 g ai/ha, postemergence, visual injury, 0 to 100 scale (0 no effect, 100 complete control), approx. 10 d, read-out: Plant response rating, Kochia
  pest or weed control at 500 g/ha: 50%
[5]; [20]
  pest or weed control at 125 g/ha: 20%
[5]; 500 g ai/ha, postemergence, visual injury, 0 to 100 scale (0 no effect, 100 complete control), approx. 10 d, read-out: Plant response rating, Galium
  pest or weed control at 500 g/ha: 60%
[6]; [21]
  plant injury at 125 g/ha: 30%
[6]; 500 g ai/ha, postemergence, visual injury, 0 to 100 scale (0 no effect, 100 complete control), approx. 10 d, read-out: Plant response rating, Wheat
  plant injury at 500 g/ha: 80%
[7]; [22]
  pest or weed control at 125 g/ha: 30%
[7]; 500 g ai/ha, postemergence, visual injury, 0 to 100 scale (0 no effect, 100 complete control), approx. 10 d, read-out: Plant response rating, Pigweed
  pest or weed control at 500 g/ha: 30%
[8]; 125 g ai/ha
  Corn plant response rating (crop injury, 0 = no effect, 100 = complete kill) at 125 g/ha: 70%
[8]; 500 g ai/ha, postemergence, visual injury, 0 to 100 scale (0 no effect, 100 complete control), approx. 10 d
  Corn plant response rating (crop injury, 0 = no effect, 100 = complete kill) at 500 g/ha: 90%
[9]; [23]
  pest or weed control at 125 g/ha: 30%
[9]; 500 g ai/ha, postemergence, visual injury, 0 to 100 scale (0 no effect, 100 complete control), approx. 10 d, read-out: Plant response rating, Ryegrass, Italian
  pest or weed control at 500 g/ha: 60%
[10]; [24]
  pest or weed control at 125 g/ha: 90%
[10]; 500 g ai/ha, postemergence, visual injury, 0 to 100 scale (0 no effect, 100 complete control), approx. 10 d, read-out: Plant response rating, Foxtail, Giant
  pest or weed control at 500 g/ha: 90%
[11]; [25]
  pest or weed control at 250 g/ha: 85%
[12]; [25]
  pest or weed control at 250 g/ha: 100%
[13]; [25]
  pest or weed control at 250 g/ha: 70%
[14]; [25]
  pest or weed control at 250 g/ha: 0%
[15]; Preemergence, visual injury rating after approximately 10 d, read-out: Barnyardgrass plant response rating (0 to 100 scale, 0 is no effect, 100 is complete control)
  pest or weed control at 125 g/ha: 90%
[15]; [26]
  pest or weed control at 500 g/ha: 90%

## CN1C[C@H](c2ccc(C(F)(F)F)cc2)[C@@H](C(=O)Nc2ccc(F)cc2C(F)(F)F)C1=O [Compound 942]
[1]; [16]
  pest or weed control at 125 g/ha: 70%
[2]; [17]
  pest or weed control at 125 g/ha: 0%
[3]; [18]
  pest or weed control at 125 g/ha: 60%
[4]; [19]
  pest or weed control at 125 g/ha: 30%
[5]; [20]
  pest or weed control at 125 g/ha: 50%
[6]; [21]
  plant injury at 125 g/ha: 20%
[7]; [22]
  pest or weed control at 125 g/ha: 70%
[8]; 125 g ai/ha
  Corn plant response rating (crop injury, 0 = no effect, 100 = complete kill) at 125 g/ha: 0%
[9]; [23]
  pest or weed control at 125 g/ha: 0%
[10]; [24]
  pest or weed control at 125 g/ha: 80%
[11]; [27]
  pest or weed control at 250 g/ha: 40%
[12]; [27]
  pest or weed control at 250 g/ha: 0%
[13]; [27]
  pest or weed control at 250 g/ha: 0%
[14]; [27]
  pest or weed control at 250 g/ha: 0%
[15]; [28]
  pest or weed control at 125 g/ha: 70%
[15]; [26]
  pest or weed control at 500 g/ha: 90%

## N#Cc1cccc(NC(=O)[C@H]2C(=O)NC[C@@H]2c2cccc(C(F)(F)F)c2)c1F [Compound 829]
[1]; postemergence, visual injury rating after approximately 10 d, read-out: Blackgrass plant response rating (0 to 100 scale, 0 no effect, 100 complete control)
  pest or weed control at 125 g/ha: 40%
[2]; postemergence, visual injury rating after approximately 10 d, read-out: Ragweed plant response rating (0 to 100 scale, 0 no effect, 100 complete control)
  pest or weed control at 125 g/ha: 0%
[3]; postemergence, visual injury rating after approximately 10 d, read-out: Barnyardgrass plant response rating (0 to 100 scale, 0 no effect, 100 complete control)
  pest or weed control at 125 g/ha: 80%
[4]; postemergence, visual injury rating after approximately 10 d, read-out: Kochia plant response rating (0 to 100 scale, 0 no effect, 100 complete control)
  pest or weed control at 125 g/ha: 0%
[5]; postemergence, visual injury rating after approximately 10 d, read-out: Galium plant response rating (0 to 100 scale, 0 no effect, 100 complete control)
  pest or weed control at 125 g/ha: 30%
[6]; postemergence, visual injury rating after approximately 10 d, read-out: Wheat plant response rating (0 to 100 scale, 0 no effect, 100 complete control)
  plant injury at 125 g/ha: 30%
[7]; postemergence, visual injury rating after approximately 10 d, read-out: Pigweed plant response rating (0 to 100 scale, 0 no effect, 100 complete control)
  pest or weed control at 125 g/ha: 0%
[8]; 125 g ai/ha, postemergence, visual injury rating after approximately 10 d, read-out: Corn plant response rating (0 to 100 scale, 0 no effect, 100 complete control)
  plant injury at 125 g/ha: 30%
[9]; postemergence, visual injury rating after approximately 10 d, read-out: Ryegrass, Italian plant response rating (0 to 100 scale, 0 no effect, 100 complete control)
  pest or weed control at 125 g/ha: 20%
[10]; postemergence, visual injury rating after approximately 10 d, read-out: Foxtail, Giant plant response rating (0 to 100 scale, 0 no effect, 100 complete control)
  pest or weed control at 125 g/ha: 90%
[11]; [27]
  pest or weed control at 250 g/ha: 70%
[12]; [27]
  pest or weed control at 250 g/ha: 55%
[13]; [27]
  pest or weed control at 250 g/ha: 0%
[14]; [27]
  pest or weed control at 250 g/ha: 0%
[15]; [28]
  pest or weed control at 125 g/ha: 90%
[15]; Preemergence, visual injury vs untreated controls after approximately 10 d, read-out: Barnyardgrass plant response rating (0 to 100 scale where 0 is no effect and 100 is complete control)
  pest or weed control at 500 g/ha: 90%

Source: patent publication US12077503B2, “Substituted cyclic amides and their use as herbicides” (FMC CORPORATION, priority 2015, dated 2024)
